According to patent publication US7402603B2, “Cyclooxygenase-2 inhibitor/histone deacetylase inhibitor combination” (Novartis AG, priority 2001, dated 2008):

Assays:
[1] = tested on: intestinal polyps; experiment: mouse model of adenomatous polyposis, prevention and treatment of intestinal polyps; type: in vivo; conditions: COX 125 ppm in feed ad libitum, HDAI 10 mg/kg i.v. 3x/wk for three weeks
Method: 5-methyl-2-(2′-chloro-6′-fluoro-anilino)-phenyl acetic acid (alternatively named [2-(2′-chloro-6′-fluoro-phenylamino)-5-methyl-phenyl]acetic acid; for the preparation see Example 1) (“COX”) and N-hydroxy-3-[4-[[(2-hydroxyethyl)[2-(1H-indol-3-yl)ethyl]-amino]methyl]phenyl]-2E-2-propenamide (alternatively named (E)-N-Hydroxy-3-[4-({(2-hydroxy-ethyl)-[2-(1H-indol-3-yl)-ethyl]-amino}-methyl)-phenyl]-acrylamide; for the preparation see Example 3) (“HDAI”) are tested as single agents and together as combination therapy in a mouse model of adenomatous polyposis for the prevention and treatment of intestinal polyps. HDAI is administered intravenously to the mice at 10 mg/kg in a 5% (w/v) dextrose in water solution, q.d., 3 times per week for three weeks. COX is administered as a dietary admixture at a concentration of 125 ppm. % T/C is the quotient of the mean number of polyps in the treated mice divided by the mean number of polyps in the control mice times 100. The following results of duplicate experiments are observed:
Both agents alone cause a statistically significant reduction in the number of newly formed intestinal polyps. […] Statistical evaluations are performed using a one tailed Student t-test and all p values are less than 0.01.

[2] = body weight change and deaths in the mouse model of adenomatous polyposis; type: in vivo; conditions: COX 125 ppm in feed ad libitum, HDAI 10 mg/kg i.v. 3x/wk for three weeks
Method: 5-methyl-2-(2′-chloro-6′-fluoro-anilino)-phenyl acetic acid (alternatively named [2-(2′-chloro-6′-fluoro-phenylamino)-5-methyl-phenyl]acetic acid; for the preparation see Example 1) (“COX”) and N-hydroxy-3-[4-[[(2-hydroxyethyl)[2-(1H-indol-3-yl)ethyl]-amino]methyl]phenyl]-2E-2-propenamide (alternatively named (E)-N-Hydroxy-3-[4-({(2-hydroxy-ethyl)-[2-(1H-indol-3-yl)-ethyl]-amino}-methyl)-phenyl]-acrylamide; for the preparation see Example 3) (“HDAI”) are tested as single agents and together as combination therapy in a mouse model of adenomatous polyposis for the prevention and treatment of intestinal polyps. HDAI is administered intravenously to the mice at 10 mg/kg in a 5% (w/v) dextrose in water solution, q.d., 3 times per week for three weeks. COX is administered as a dietary admixture at a concentration of 125 ppm. % T/C is the quotient of the mean number of polyps in the treated mice divided by the mean number of polyps in the control mice times 100. The following results of duplicate experiments are observed: […]

[3] = second of duplicate experiments

Row | SMILES | % T/C (mean number of polyps treated / control x 100) ([1]; first of duplicate experiments) [%] | Mean Intestinal Polyp Count (# ± SEM) ([1]; first of duplicate experiments) | % T/C (mean number of polyps treated / control x 100) [1, 3] [%] | Mean Intestinal Polyp Count (# ± SEM) [1, 3] | % Body Wt. Change ([2]; first of duplicate experiments) | Dead/Total animals ([2]; first of duplicate experiments) | % Body Wt. Change [2, 3] | Dead/Total animals [2, 3]
1 | Cc1ccc(Nc2c(F)cccc2Cl)c(CC(=O)O)c1 [COX, 5-methyl-2-(2′-chloro-6′-fluoro-anilino)-phenyl acetic acid] | 60 | 14 ± 0.7 # | 46 | 12 ± 0.3 # | +10 ± 0.1% | 0/7 | +8.1 ± 0.2% | 0/7
2 | O=C(/C=C/c1ccc(CN(CCO)CCc2c[nH]c3ccccc23)cc1)NO [HDAI, N-hydroxy-3-[4-[[(2-hydroxyethyl)[2-(1H-indol-3-yl)ethyl]-amino]methyl]phenyl]-2E-2-propenamide] | 52 | 12 ± 0.57 # | 57 | 15 ± 0.3 # | +3.5 ± 0.1% | 0/7 | +9.6 ± 0.1% | 0/7
